Data: patent US10308644B2, “Heterocyclic compounds as immunomodulators” (Incyte Corporation, priority 2016, dated 2019)

What follows are compounds tested against PD-1/PD-L1 (Homo sapiens (Human), UniProt Q9NZQ7) (assay: PD-1/PD-L1 Homogeneous Time-Resolved Fluorescence (HTRF) Binding Assay). Conditions: recombinant human PD-1 (3 nM) and PD-L1 (10 nM), 25° C., PBS pH 7.4.
In short: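 Fc-tagged human PD-1 (25-167, 3 nM) and His-tagged PD-L1 (19-238, 10 nM) preincubated with inhibitor 40 min in PBS pH 7.4, 0.05% Tween-20, 0.1% BSA, 1% DMSO, 25 °C. Binding detected by HTRF (Eu anti-IgG/APC anti-His, 665/620 nm) after 60 min; IC50 from percent control activity.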

PD-1/PD-L1, sequence (Q9NZQ7 19-238): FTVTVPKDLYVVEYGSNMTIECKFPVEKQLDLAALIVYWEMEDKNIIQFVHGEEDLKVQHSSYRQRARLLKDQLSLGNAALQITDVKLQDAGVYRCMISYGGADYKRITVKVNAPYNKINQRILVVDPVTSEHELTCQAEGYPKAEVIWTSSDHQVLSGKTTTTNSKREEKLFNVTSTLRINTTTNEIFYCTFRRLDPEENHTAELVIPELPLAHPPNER

IC50	SMILES
≤ 10 nM	Cc1c(Nc2nccc3cc(CN4CC[C@@H](O)C4)cnc23)cccc1-c1cccc(-c2nc3cc(CN[C@H]4CCC[C@@H]4C(=O)O)cc(C#N)c3o2)c1C [Example 179, (1S,2S)-2-((7-cyano-2-(3′-(3-(((R)-3-hydroxypyrrolidin-1-yl)methyl)-1,7-naphthyridin-8-ylamino)-2,2′-dimethylbiphenyl-3-yl)benzo[d]oxazol-5-yl)methylamino)cyclopentanecarboxylic acid]
≤ 10 nM	Cc1c(Nc2nccc3cc(CN4CC[C@@H](O)C4)cnc23)cccc1-c1cccc(-c2nc3cc(CN[C@H]4CC[C@@H](C(=O)O)C4)cc(C#N)c3o2)c1C [Example 169, (1R,3S)-3-((7-cyano-2-(3′-(3-(((R)-3-hydroxypyrrolidin-1-yl)methyl)-1,7-naphthyridin-8-ylamino)-2,2′-dimethylbiphenyl-3-yl)benzo[d]oxazol-5-yl)methylamino)cyclopentanecarboxylic acid]
≤ 10 nM	Cc1c(-c2nc3cc(CN4CC[C@@H](C(=O)O)C4)cc(C#N)c3o2)cccc1-c1cccc(-c2nc3c(s2)CN(C(=O)CN2CC[C@@](C)(O)C2)C3)c1C [Example 116, (R)-1-((7-cyano-2-(3′-(5-(2-((R)-3-hydroxy-3-methylpyrrolidin-1-yl)acetyl)-5,6-dihydro-4H-pyrrolo[3,4-d]thiazol-2-yl)-2,2′-dimethylbiphenyl-3-yl)benzo[d]oxazol-5-yl)methyl)pyrrolidine-3-carboxylic acid]
≤ 10 nM	Cc1c(Nc2nccc3cc(CN4CC[C@H](O)C4)cnc23)cccc1-c1cccc(-c2nc3cc(CN4CCC[C@H]4C(=O)O)cc(C#N)c3o2)c1C [Example 35, (S)-1-((7-cyano-2-(3′-(3-(((S)-3-hydroxypyrrolidin-1-yl)methyl)-1,7-naphthyridin-8-ylamino)-2,2′-dimethylbiphenyl-3-yl)benzo[d]oxazol-5-yl)methyl)pyrrolidine-2-carboxylic acid]
≤ 10 nM	Cc1c(Nc2nccc3cc(CN4CC[C@@H](O)C4)cnc23)cccc1-c1cccc(-c2nc3cc(CN4CC[C@@](C)(C(=O)O)C4)cc(C#N)c3o2)c1C [Example 100, (R)-1-((7-cyano-2-(3′-(3-(((R)-3-hydroxypyrrolidin-1-yl)methyl)-1,7-naphthyridin-8-ylamino)-2,2′-dimethylbiphenyl-3-yl)benzo[d]oxazol-5-yl)methyl)-3-methylpyrrolidine-3-carboxylic acid]
≤ 10 nM	Cc1c(-c2nc3cc(CN4CC[C@H](C(=O)O)C4)cc(C#N)c3o2)cccc1-c1cccc(NC(=O)c2nc3c(n2C)CCNC3)c1Cl [Example 92, (S)-1-((2-(2′-chloro-2-methyl-3′-(1-methyl-4,5,6,7-tetrahydro-1H-imidazo[4,5-c]pyridine-2-carboxamido)biphenyl-3-yl)-7-cyanobenzo[d]oxazol-5-yl)methyl)pyrrolidine-3-carboxylic acid]
≤ 10 nM	Cc1c(Nc2nccc3cc(CN4CC(O)C4)cnc23)cccc1-c1cccc(-c2nc3cc(CN4CC[C@@H](C(=O)O)C4)cc(C#N)c3o2)c1C [Example 136, (R)-1-((7-cyano-2-(3′-(3-((3-hydroxyazetidin-1-yl)methyl)-1,7-naphthyridin-8-ylamino)-2,2′-dimethylbiphenyl-3-yl)benzo[d]oxazol-5-yl)methyl)pyrrolidine-3-carboxylic acid]
≤ 10 nM	Cc1c(-c2nc3cc(CN4CC[C@@H](C(=O)O)C4)cc(C#N)c3o2)cccc1-c1cccc(-c2nc3c(s2)CN(C(C)C)CC3)c1C [Example 63, (R)-1-((7-cyano-2-(3′-(5-isopropyl-4,5,6,7-tetrahydrothiazolo[5,4-c]pyridin-2-yl)-2,2′-dimethyl-[1,1′-biphenyl]-3-yl)benzo[d]oxazol-5-yl)methyl)pyrrolidine-3-carboxylic acid]
≤ 10 nM	Cc1c(-c2nc3cc(CN4CC5CC4CC5O)cc(C#N)c3o2)cccc1-c1cccc(NC(=O)c2nc3c(n2C)CCN(CC2CCC(C(=O)O)CC2)C3)c1Cl (stereo not drawn) [Example 270, trans-4-((2-(2-chloro-3′-(7-cyano-5-((5-hydroxy-2-azabicyclo[2.2.1]heptan-2-yl)methyl)benzo[d]oxazol-2-yl)-2′-methylbiphenyl-3-ylcarbamoyl)-1-methyl-6,7-dihydro-1H-imidazo[4,5-c]pyridin-5(4H)-yl)methyl)cyclohexanecarboxylic acid]
≤ 10 nM	Cc1c(Nc2nccc3cc(CNC[C@H](C)O)cnc23)cccc1-c1cccc(-c2nc3cc(CN4CC[C@@](C)(C(=O)O)C4)cc(C#N)c3o2)c1C [Example 191, (R)-1-((7-cyano-2-(3′-(3-(((S)-2-hydroxypropylamino)methyl)-1,7-naphthyridin-8-ylamino)-2,2′-dimethylbiphenyl-3-yl)benzo[d]oxazol-5-yl)methyl)-3-methylpyrrolidine-3-carboxylic acid]
≤ 10 nM	Cc1c(-c2nc3c(o2)CN(C(=O)CCN(C)C)C3)cccc1-c1cccc(-c2nc3cc(CN4CC[C@@H](C(=O)O)C4)cc(C#N)c3o2)c1C [Example 125, (R)-1-((7-cyano-2-(3′-(5-(3-(dimethylamino)propanoyl)-5,6-dihydro-4H-pyrrolo[3,4-d]oxazol-2-yl)-2,2′-dimethyl-[1,1′-biphenyl]-3-yl)benzo[d]oxazol-5-yl)methyl)pyrrolidine-3-carboxylic acid]
≤ 10 nM	Cc1c(-c2nc3cc(CN4CC[C@@](C)(C(=O)O)C4)cc(C#N)c3o2)cccc1-c1cccc(NC(=O)c2nc3c(n2C)CCN(C[C@@H](C)O)C3)c1Cl [Example 157, (R)-1-((2-(2′-chloro-3′-(5-((R)-2-hydroxypropyl)-1-methyl-4,5,6,7-tetrahydro-1H-imidazo[4,5-c]pyridine-2-carboxamido)-2-methylbiphenyl-3-yl)-7-cyanobenzo[d]oxazol-5-yl)methyl)-3-methylpyrrolidine-3-carboxylic acid]
≤ 10 nM	Cc1c(-c2nc3cc(CN4CC[C@H](C(=O)O)C4)cc(C#N)c3o2)cccc1-c1cccc(-n2cc3c(n2)CCN(C)C3)c1Cl [Example 54, (S)-1-((2-(2′-chloro-2-methyl-3′-(5-methyl-4,5,6,7-tetrahydro-2H-pyrazolo[4,3-c]pyridin-2-yl)biphenyl-3-yl)-7-cyanobenzo[d]oxazol-5-yl)methyl)pyrrolidine-3-carboxylic acid]
≤ 10 nM	Cc1c(-c2nc3cc(CN4CC[C@H](C(=O)O)C4)cc(C#N)c3o2)cccc1-c1cccc(Nc2nccc3cc(CN4CC[C@H](O)C4)cnc23)c1Cl [Example 33, (S)-1-((2-(2′-chloro-3′-(3-(((S)-3-hydroxypyrrolidin-1-yl)methyl)-1,7-naphthyridin-8-ylamino)-2-methylbiphenyl-3-yl)-7-cyanobenzo[d]oxazol-5-yl)methyl)pyrrolidine-3-carboxylic acid]
≤ 10 nM	Cc1c(Nc2nccc3cc(CN4CC[C@@H](O)C4)cnc23)cccc1-c1cccc(-c2nc3cc(CN[C@H]4CC[C@@H](C(=O)O)CC4)cc(C#N)c3o2)c1C [Example 172, cis-4-((7-cyano-2-(3′-(3-(((R)-3-hydroxypyrrolidin-1-yl)methyl)-1,7-naphthyridin-8-ylamino)-2,2′-dimethylbiphenyl-3-yl)benzo[d]oxazol-5-yl)methylamino) cyclohexanecarboxylic acid]
